Key:
[1] = test system: mammalian cells carrying PTCs related to Usher syndrome, Rett syndrome, cystic fibrosis, and mucopolysaccharidosis I-Hurler (MPS I-H); conditions: cited from earlier work
[2] = test system: PTC-containing CFTR transcript (W1282X); assay: Radioactive RT-PCR of cells expressing CFTR minigene carrying W1282X, transfected with ASOs; assay type: cell-based, human; conditions: for relative potency among ASOs of each CFTR exon-exon junction (screening): boundaries 24/25, 25/26, 26/27, 19 ASOs each
Description: ASO microwalks are performed as previously described (7), altogether targeting a region that spans 33 nt from −6 to −38 of the 3′ end of exons that are EJC-bound (FIG. 2). Briefly, cell lines expressing minigenes carrying mutations in the last EJC-bound exon or their wild-type versions and GFP (by transfection using lipofectamine or induction with tetracycline) are co-transfected with each of the 15-mer ASOs, independently. In total, 19 ASOs that are consecutively shifted by 1 nt are tested for each EJC-bound exon-exon junction downstream of the mutations (FIG. 2). This methodology was followed in designing the sequences for the ASOs to target PTC-containing (e.g., disease-causing nonsense mutation) HBB alleles (See SEQ ID NOs 1-19), MECP2 alleles (See SEQ ID NOs 20-38), CFTR alleles (See SEQ ID NOs 39-114), DMD alleles (See SEQ ID NOs 115-190), and IDUA alleles (See SEQ ID Nos 191-268). Different concentrations of ASOs are tested to obtain a dose-response curve. In the case of genes containing more than one exon-exon junction downstream of a PTC, minigene intermediates are constructed to screen for NMD-inhibiting ASOs one junction at a time and in combination with the best targeting ASO that resulted from the screening of the upstream junction. Abrogation of NMD is assessed by RT-PCR, and the percentage of mutant transcript is calculated as described above. Because some of the ASOs might interfere with splicing-factor binding sites, it is important to determine whether the splicing of the targeted exons is adversely affected. Only the ASOs that abrogate NMD without negative effects on splicing are pursued.
Moreover, minigenes consisting of CFTR exons 22-25, 22-26 and 22-27 carrying the W1282X mutation in exon 23 as well as its restive wild-type version were generated. As described above, 19 15-mer ASOs were obtained that target a region spanning nucleotides −38 to −6 of the exons 24/25 boundary and transfected to CFTR minigene expressing cells. Once this screening identified the best NMD inhibiting ASO, it is then transfected in combination with each the 19 15-mer ASOs that target a region spanning nucleotides −38 to −6 of the exons 25/26 boundary. The resulting best combination of ASOs (from each exon-exon boundary) was then transfected in combination with each of the 19 15-mer ASOs that target a region spanning nucleotides −38 to −6 of the exons 26/27 boundary. The levels of spliced CFTR mRNA were then measured after induced expression using radioactive RT-PCR.

[3] = test system: PTC-containing HBB transcript (T39); assay: Radioactive RT-PCR of HeLa cells co-transfected with HBB reporters and ASOs; assay type: cell-based, human; conditions: for mRNA levels of PTC-containing HBB transcript (T39): HeLa cells, ASO 50 nM co-transfected with HBB Q39X gene, compared with control-ASO, percentages normalized to WT
Excerpt: (§1) In some examples, it is desirable to start with mutations located in the last presumptive EJC-bound exon, as targeting only one junction at a time will simplify the interpretation of results. Once the effectiveness of preventing EJC deposition by ASOs is confirmed, two or more junctions are targeted. In some examples, three mutations for each gene are selected, and only mutations that lead to a transcript level <50% of the wild-type transcript will be targeted by the ASO microwalk (discussed below). […] Briefly, minigenes carrying the selected mutations and their wild-type versions are co-transfected with a GFP-expressing vector into HeLa cells. Forty-eight hours later, RNA is extracted and radioactive RT-PCR is performed. Products corresponding to the wild-type and mutant minigenes are normalized to GFP expression, and the percentage of the mutant over the wild-type transcript is calculated. In the case of integrated minigenes into U2OS cells, wild-type and mutant minigene products are normalized to endogenous housekeeping genes, e.g. GAPDH.
ASO microwalks are performed as previously described (7), altogether targeting a region that spans 33 nt from −6 to −38 of the 3′ end of exons that are EJC-bound (FIG. 2). Briefly, cell lines expressing minigenes carrying mutations in the last EJC-bound exon or their wild-type versions and GFP (by transfection using lipofectamine or induction with tetracycline) are co-transfected with each of the 15-mer ASOs, independently. […] Abrogation of NMD is assessed by RT-PCR, and the percentage of mutant transcript is calculated as described above. […]
A set of 19 overlapping 2′-O-methoxyethyl phosphorothioate (MOE-P=S) ASO 15mers targeting the canonical EJC region in exon 2 of HBB were synthesized. […] The levels of spliced HBB mRNA were then measured after transient or induced expression using radioactive RT-PCR. […] Truncated protein levels resulting from the ASO treatment were assessed by western blot analysis using anti-GFP antibody.

[4] = test system: MECP2 S65X transcript; assay: MECP2 S65X minigene reporter, mRNA level after ASO transfection; assay type: cell-based, human; conditions: microwalk of 19 ASOs
Excerpt: as §1
ASO microwalks are performed as previously described (7), altogether targeting a region that spans 33 nt from −6 to −38 of the 3′ end of exons that are EJC-bound (FIG. 2). […] Abrogation of NMD is assessed by RT-PCR, and the percentage of mutant transcript is calculated as described above. […]

For `NC[C@H]1O[C@@H](OC2C(O)[C@H](N)CC(N)[C@H]2O[C@H]2OC(CO)[C@@H](O)C(O)C2N)C(O)C1O` (some centres unmarked) [NB30], the “restoration of functional protein” value [1] is listed as “restore a significant amount of functional protein”.
In the case of `NCC[C@H](O)C(=O)N[C@@H]1CC(N)[C@@H](O[C@H]2OC(CO)[C@@H](O)[C@H](O)C2N)[C@H](O[C@@H]2O[C@H](CN)[C@H](O)C2O)C1O` (some centres unmarked) [NB54], the “restoration of functional protein” value [1] is listed as “restore a significant amount of functional protein”.
For `C[C@@H](O)C1O[C@H](O[C@@H]2C(N)C[C@@H](NC(=O)[C@@H](O)CCN)[C@@H](O)C2O[C@@H]2O[C@H](CN)[C@H](O)C2O)[C@@H](N)C(O)[C@@H]1O` (some centres unmarked) [NB84], the “restoration of functional protein” value [1] is listed as “restore a significant amount of functional protein”.
In the case of “ACTGGGTTCATCAAG (listed as DNA, chemistry not given here) [SEQ ID NO: 83, ASO targeting CFTR exon 25]”, the “relative potency among ASOs of each CFTR exon-exon junction (screening)” value (“relative potency among ASOs … (screening)” below) [2] is reported as “most potent ASOs targeting each exon-exon junction”.
With “CATATTTCTTGATCA (listed as DNA, chemistry not given here) [SEQ ID NO: 65, ASO targeting CFTR exon 24]” the “relative potency among ASOs … (screening)” value [2] was “most potent ASOs targeting each exon-exon junction”.
With “CTCAGGATCCACGTG (2'-MOE phosphorothioate, further chemistry not given here) [SEQ ID NO: 15, 2′-O-methoxyethyl phosphorothioate (MOE-P=S) 15mer]” the “mRNA levels of PTC-containing HBB transcript (T39)” value [3] was “increase in mRNA levels” and the “relative potency among ASOs targeting HBB exon 2” value ([3]; microwalk of 19 ASOs, -38 to -6 from the exon 2/exon 3 junction) was “most potent ASO targeting HBB exon 2”.
For “GCATTCCAGCATTGC (listed as DNA, chemistry not given here) [SEQ ID NO: 107, ASO targeting CFTR exon 26]”, the “mRNA level of CFTR W1282X transcript, ASOs tested independently (relative potency)” value ([2]; CFTR 22-17 minigene, one ASO per exon-exon junction downstream of W1282X) was “most potent ASO” and the “relative potency among ASOs … (screening)” value [2] was “most potent ASOs targeting each exon-exon junction”.
With “TACTTCCCAGCAGAG (listed as DNA, chemistry not given here) [SEQ ID NO: 25]” the “relative potency among ASOs targeting MECP2 exon 3” value [4] was “most potent ASO targeting MECP2 exon 3”.
For “TCTCAGGATCCACGT (all 2'-MOE, all phosphorothioate, methylation of C not given here) [SEQ ID NO: 16, ASO targeting HBB exon 2; 2′-O-methoxyethyl phosphorothioate (MOE-P=S) 15mer]”, the “mRNA levels of PTC-containing HBB transcript (T39)” value [3] was “increase in mRNA levels”.
